Experimental data published in patent US10669272B2, “Substituted naphthyridinone compounds useful as T cell activators” (BRISTOL-MYERS SQUIBB COMPANY, priority 2018, dated 2020).
Like-named read-outs stand apart in the source and are kept apart here.

Columns and labels:
[1] = test system: Human venous whole blood; assay: Human whole blood IFN-γ assay; type: cell-based; details: human whole blood, read-out: INFg Whole Blood Normalized Agonist EC50;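 also: blood from healthy donors exposed to compound for 1 h before stimulation with anti-CD3 and anti-CD28 at 1 µg/mL each, IFN-γ quantified in supernatant by AlphaLISA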
Method: Human Whole Blood IFN-γ Assay
Human venous whole blood (22.5 μL per well), obtained from healthy donors, was pre-treated with compounds for one hour at 37° C. in a humidified 95% air/5% CO2 incubator. The blood was stimulated with 2.5 μL anti-human CD3 and anti-CD28 mAb at a final concentration of 1 μg/mL each for 24 hours at 37° C. IFN-γ in the supernatants was measured using AlphLISA kit (Cat # AL217).

[2] = biological target: T1, human DGKζ (Homo sapiens, UniProt Q13574); assay: DGKζ LIPGLO assay (extruded liposome substrate), in vitro DGK inhibition; type: biochemical; details: read-out: DGKz LIPGLO IC50
T1 construct: TVMV protease cleavage site (C); Hexa-His (C); made in house; host or cells: Sf9 insect cells (baculovirus, Bac-to-Bac)
T1 sequence (Q13574 with tags, fused parts or gaps isoform Q13574-4): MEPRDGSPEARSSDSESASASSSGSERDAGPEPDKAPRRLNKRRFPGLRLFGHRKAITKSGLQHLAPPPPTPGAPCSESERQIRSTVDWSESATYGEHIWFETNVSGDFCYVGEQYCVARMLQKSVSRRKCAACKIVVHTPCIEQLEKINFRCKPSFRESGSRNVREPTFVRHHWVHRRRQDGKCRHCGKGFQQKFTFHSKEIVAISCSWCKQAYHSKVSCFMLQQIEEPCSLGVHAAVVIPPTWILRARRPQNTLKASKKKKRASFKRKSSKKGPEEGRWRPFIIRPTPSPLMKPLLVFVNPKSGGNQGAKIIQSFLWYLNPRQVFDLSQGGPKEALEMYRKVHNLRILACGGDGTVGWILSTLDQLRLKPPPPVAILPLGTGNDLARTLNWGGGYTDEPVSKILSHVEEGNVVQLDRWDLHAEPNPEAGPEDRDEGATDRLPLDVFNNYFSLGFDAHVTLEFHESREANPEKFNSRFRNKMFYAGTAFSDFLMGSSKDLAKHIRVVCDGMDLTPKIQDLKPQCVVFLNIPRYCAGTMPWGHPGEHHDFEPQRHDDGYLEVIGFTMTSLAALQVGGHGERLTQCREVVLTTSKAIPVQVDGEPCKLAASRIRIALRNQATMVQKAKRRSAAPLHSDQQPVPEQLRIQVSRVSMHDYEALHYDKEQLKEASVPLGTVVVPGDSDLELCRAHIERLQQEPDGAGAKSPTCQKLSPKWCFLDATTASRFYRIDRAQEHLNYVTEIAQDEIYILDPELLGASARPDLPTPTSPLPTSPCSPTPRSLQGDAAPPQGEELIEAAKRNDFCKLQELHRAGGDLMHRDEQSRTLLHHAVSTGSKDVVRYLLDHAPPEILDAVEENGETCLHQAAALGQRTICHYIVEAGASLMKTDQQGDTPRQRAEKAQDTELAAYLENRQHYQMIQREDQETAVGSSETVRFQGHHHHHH

[3] = biological target: T2, human DGKα (Homo sapiens, UniProt P23743); assay: DGKα LIPGLO assay (extruded liposome substrate), in vitro DGK inhibition; type: biochemical; details: read-out: DGKa LIPGLO IC50
T2 construct: TVMV protease cleavage site (C); Hexa-His (C); made in house; host or cells: Sf9 insect cells (baculovirus, Bac-to-Bac)
T2 sequence (P23743 with tags, fused parts or gaps): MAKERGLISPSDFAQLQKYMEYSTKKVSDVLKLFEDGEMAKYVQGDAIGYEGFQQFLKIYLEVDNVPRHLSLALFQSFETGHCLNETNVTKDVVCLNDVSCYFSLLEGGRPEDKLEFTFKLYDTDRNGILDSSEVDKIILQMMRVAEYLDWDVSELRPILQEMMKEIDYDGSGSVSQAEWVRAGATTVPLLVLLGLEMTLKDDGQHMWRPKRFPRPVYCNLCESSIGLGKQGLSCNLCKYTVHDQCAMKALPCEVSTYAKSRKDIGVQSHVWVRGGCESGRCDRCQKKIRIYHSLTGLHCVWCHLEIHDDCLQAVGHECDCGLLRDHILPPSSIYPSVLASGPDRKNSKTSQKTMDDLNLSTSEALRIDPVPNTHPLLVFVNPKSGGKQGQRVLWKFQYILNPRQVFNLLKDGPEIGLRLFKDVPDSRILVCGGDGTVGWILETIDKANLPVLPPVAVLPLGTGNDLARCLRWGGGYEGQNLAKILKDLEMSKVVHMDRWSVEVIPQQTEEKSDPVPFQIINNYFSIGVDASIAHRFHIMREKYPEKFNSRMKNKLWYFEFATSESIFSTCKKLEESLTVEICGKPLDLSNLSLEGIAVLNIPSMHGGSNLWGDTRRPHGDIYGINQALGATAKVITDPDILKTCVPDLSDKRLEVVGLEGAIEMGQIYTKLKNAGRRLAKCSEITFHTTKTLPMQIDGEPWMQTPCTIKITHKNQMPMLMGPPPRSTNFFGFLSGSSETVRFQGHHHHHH

[4] = Homo sapiens, 24 h, anti-CD3 plus anti-CD28, 24 hours, 3 μM reference compound = 100% activation
[5] = anti-CD3 plus anti-CD28, 24 hours, 3 μM reference compound = 100% activation
[6] = Homo sapiens, 24 h, normalized to 3 μM reference compound with anti-CD3 plus anti-CD28 as 100% activation
[7] = normalized to 3 μM reference compound with anti-CD3 plus anti-CD28 as 100% activation

SMILES	EC50 [1, 4]	IC50 ([2]; DGKζ liposome (LIPGLO) assay)	IC50 ([3]; DGKα liposome (LIPGLO) assay)	EC50 [1, 5]	EC50 [1, 6]	IC50 ([2]; liposome (LIPGLO) assay)	IC50 ([3]; liposome (LIPGLO) assay)	EC50 [1, 7]
C[C@@H]1CN(c2c(C#N)c(=O)n(C)c3ccc(C#N)nc23)[C@@H](C)CN1C(c1ccc(Cl)cc1)c1ccc(Cl)cc1 [Example 805]	9800 nM	1700 nM	11000 nM					
C[C@@H]1CN(c2c(C#N)c(=O)n(C)c3ccc(C#N)nc23)CCN1C(c1ccc(F)cc1)c1ccc(C#N)cc1 (single isomer, unassigned) [Example 920]		13000 nM	4900 nM	1900 nM				
C[C@@H]1CN(c2c(C#N)c(=O)n(C)c3ccc(C#N)nc23)[C@@H](C)CN1C(c1ccc(F)cc1)c1nc(C2CC2)no1 (single isomer, unassigned) [Example 860]	720 nM	1300 nM	410 nM					
CC[C@@H]1CN(c2cc(=O)n(C)c3ccc(C#N)nc23)[C@@H](C)CN1Cc1ccc(F)cc1F [Example 1077]					140 nM	320 nM	460 nM	
CC(c1cccc(C(F)(F)F)n1)N1C[C@H](C)N(c2cc(=O)n(C)c3ccc(C#N)nc23)C[C@H]1C (single isomer, unassigned) [Example 636]						8000 nM	12000 nM	3900 nM
COc1cccc(C(c2ccc(F)cc2)N2C[C@H](C)N(c3cc(=O)n(C)c4ccc(C#N)nc34)C[C@H]2C)c1 (single isomer, unassigned) [Example 661]						1700 nM	4100 nM	1000 nM
CC[C@H]1CN(C(C)c2ccc(OC(F)(F)F)cc2F)[C@H](CC)CN1c1cc(=O)n(C)c2ccc(C#N)nc12 (single isomer, unassigned) [Example 1371]						58 nM	21 nM	150 nM
CC[C@H]1CN(C(C)c2ccc3c(c2)OC(F)(F)O3)[C@H](CC)CN1c1cc(=O)n(C)c2ccc(C#N)nc12 (single isomer, unassigned) [Example 1369]						750 nM	1400 nM	1300 nM
CC(c1nc(C2CC2)no1)N1C[C@H](C)N(c2c(C#N)c(=O)n(C)c3ccc(C#N)nc23)C[C@H]1C (single isomer, unassigned) [Example 1307]					20000 nM	14000 nM	5600 nM	
C[C@@H]1CN(c2cc(=O)n(C)c3ccc(C#N)nc23)[C@@H](C)CN1C(c1ccc(F)cc1)c1ccns1 (stereo partly drawn) [Example 720]						940 nM	1100 nM	1900 nM
Cn1c(=O)cc(N2CCN(Cc3ccc(F)cc3Cl)C(COC(F)F)C2)c2nc(C#N)ccc21 (single isomer, unassigned) [Example 1185, 8-(4-(2-chloro-4-fluorobenzyl)-3-((difluoromethoxy)methyl)piperazin-1-yl)-5-methyl-6-oxo-5,6-dihydro-1,5-naphthyridine-2-carbonitrile]					4300 nM	2400 nM	81000 nM	
CC(C)c1noc(C(c2ccc(F)cc2)N2C[C@H](C)N(c3cc(=O)n(C)c4ccc(C#N)nc34)C[C@H]2C)n1 (single isomer, unassigned) [Example 748]		220 nM	54 nM	410 nM				
C[C@@H]1CN(c2cc(=O)n(C)c3ccc(C#N)nc23)[C@@H](C)CN1C(c1ccc(F)cc1)c1cccc(F)c1 (stereo partly drawn) [Example 293, 8-[(2S,5R)-4-[(3-fluorophenyl)(4-fluorophenyl)methyl]-2,5-dimethylpiperazin-1-yl]-5-methyl-6-oxo-5,6-dihydro-1,5-naphthyridine-2-carbonitrile]						160 nM	330 nM	460 nM
Cc1ccc(C(C)N2C[C@H](C)N(c3c(C#N)c(=O)n(C)c4ccc(C#N)nc34)C[C@H]2C)cc1 (single isomer, unassigned) [Example 785]		> 250000 nM	690 nM	6400 nM				
CC1CN(C(c2ccc(F)cc2)c2nc(C(C)(C)C)no2)C(C)CN1c1c(C#N)c(=O)n(C)c2ccc(C#N)nc12 (single isomer, unassigned) [Example 863]		190 nM	530 nM	720 nM				
C[C@@H]1CN(c2c(F)c(=O)n(C)c3ccc(C#N)nc23)[C@@H](C)CN1C(c1ccc(F)cc1)c1cccc(F)c1 (single isomer, unassigned) [Example 331]						1900 nM	1700 nM	20000 nM
C[C@@H]1CN(c2c(C#N)c(=O)n(C)c3ccc(C#N)nc23)[C@@H](C)CN1C(c1ccc(F)cc1)c1cc(C2CC2)on1 (single isomer, unassigned) [Example 868]	2200 nM	2400 nM	440 nM					

SMILES	EC50 [1, 4]	IC50 ([2]; DGKζ liposome (LIPGLO) assay)	IC50 ([3]; DGKα liposome (LIPGLO) assay)	EC50 [1, 5]	EC50 [1, 6]	IC50 ([2]; liposome (LIPGLO) assay)	IC50 ([3]; liposome (LIPGLO) assay)	EC50 [1, 7]
Cc1ccc(C(c2ccc(F)cn2)N2CCN(c3c(C#N)c(=O)n(C)c4ccc(C#N)nc34)C[C@H]2C)cc1 (stereo partly drawn) [Example 898]		700 nM	340 nM	480 nM				
C[C@@H]1CN(c2c(C#N)c(=O)n(C)c3ccc(C#N)nc23)CCN1Cc1ccc(-c2ccccc2)cc1 [Example 994]	20000 nM	110000 nM	6400 nM					
CC(C)c1nc(CN2C[C@H](C)N(c3cc(=O)n(C)c4ccc(C#N)nc34)C[C@H]2C)no1 [Example 1432]					20000 nM	7700 nM	2100 nM	
C[C@@H]1CN(c2cc(=O)n(C)c3ccc(C#N)nc23)[C@@H](C)CN1Cc1ccc(OC(F)(F)F)c(F)c1 [Example 610]					1800 nM	13000 nM	690 nM	
CC(c1ccc(OC(F)F)cn1)N1C[C@H](C)N(c2cc(=O)n(C)c3ccc(C#N)nc23)C[C@H]1C (single isomer, unassigned) [Example 1224]						1400 nM	41 nM	1800 nM
C[C@@H]1CN(c2cc(=O)n(C)c3ccc(C#N)nc23)[C@@H](C)CN1C(c1ccc(F)cc1)c1ccns1 (stereo partly drawn) [Example 719]						380 nM	400 nM	500 nM
C[C@@H]1CN(c2cc(=O)n(C)c3ccc(C#N)nc23)[C@@H](C)CN1Cc1ccc(Cl)cc1 [Example 604]					4800 nM	2000 nM	310 nM	
C[C@@H]1CN(c2cc(=O)n(C)c3ccc(C#N)nc23)[C@@H](C)CN1C(c1ccc(F)cc1)c1ccc(N2CCOCC2)cc1 (single isomer, unassigned) [Example 663]						24000 nM	> 250000 nM	20000 nM
CCC(c1cc(OC(F)(F)F)ccc1F)N1C[C@H](C)N(c2cc(=O)n(C)c3ccc(C#N)nc23)C[C@H]1C (stereo partly drawn) [Example 1207]						1400 nM	14000 nM	13000 nM
C[C@@H]1CN(c2cc(=O)n(C)c3ccc(C#N)nc23)[C@@H](C)CN1C(c1ccc(F)cc1)c1nccs1 (single isomer, unassigned) [Example 712]						720 nM	320 nM	2800 nM
C[C@@H]1CN(c2cc(=O)n(C)c3ccc(C#N)nc23)[C@@H](C)CN1C(c1ccc(F)cc1)c1cccc(C(F)(F)F)n1 (stereo partly drawn) [Example 678]						1500 nM	3600 nM	440 nM
C[C@@H]1CN(c2cc(=O)n(C)c3ccc(C#N)nc23)[C@@H](C)CN1CC1CCOCC1 [Example 623]					20000 nM	> 250000 nM	130000 nM	
C[C@@H]1CN(c2c(C#N)c(=O)n(C)c3ccc(C#N)nc23)[C@@H](C)CN1C(c1ccc(F)cc1)c1ccc(C(F)(F)F)cn1 (single isomer, unassigned) [Example 836]	1100 nM	4900 nM	4700 nM					
Cc1cc(C(C)N2C[C@H](C)N(c3cc(=O)n(C)c4ccc(C#N)nc34)C[C@H]2C)ccc1F (stereo partly drawn) [Example 1255]					2900 nM	2000 nM	3100 nM	
C[C@@H]1CN(c2c(F)c(=O)n(C)c3ccc(C#N)nc23)[C@@H](C)CN1C(c1ccc(F)cc1)c1cccc(F)c1 (single isomer, unassigned) [Example 330]						500 nM	260 nM	1200 nM
C[C@@H]1CN(c2cc(=O)n(C)c3ccc(C#N)nc23)[C@@H](C)CN1C(c1ccc(F)cn1)c1cccc2c1OC(C)(C)C2 (single isomer, unassigned) [Example 465]					20000 nM	980 nM	200 nM	
